The source of these data is ChEMBL document CHEMBL3045246, “Investigation on the substitution effects of the flavonoids as potent anticancer agents: a structureactivity relationships study” (Med Chem Res, 2012).

SMILES strings stand for the structures.

In general, IC50 refers to the midpoint of a concentration-inhibition curve.

In one assay the test system is HepG2. Kind of assay: Cytotoxicity against Homo sapiens (human) HepG2 cells after 48 hr by MTT reduction assay. Format: functional, cell-based. Conditions: HepG2, 48 h.
For `Cc1ccc2oc(-c3ccc(N)cc3)cc(=O)c2c1`, inhibition was half-maximal at 21.3 µM (IC50).
Take `CN1CCN(Cc2ccc3c(=O)cc(-c4ccccc4Cl)oc3c2)CC1`: half-maximal inhibition (IC50) required 14.2 µM.
Regarding `O=c1cc(-c2ccccc2Cl)oc2cc(CN3CCNCC3)ccc12`, 2.58 µM corresponded to half-maximal inhibition (IC50).
In turn, `O=c1cc(-c2ccc(Cl)cc2)oc2ccc(CN3CCCCC3)cc12` came in with an IC50 of 14 µM.
Same read-out and setting: the value for `O=c1cc(-c2ccc(Cl)cc2)oc2ccc(CN3CCNCC3)cc12` was 2.69 µM; that for `CC[N+](CC)(CC)Cc1ccc2oc(-c3ccccc3Cl)cc(=O)c2c1` was 61 µM; that for `Nc1ccc(-c2cc(=O)c3cc(CN4CCCCC4)ccc3o2)cc1` was 2.64 µM.
Still for that read-out and setting: as for `Cc1ccc2c(=O)cc(-c3ccc(Cl)cc3)oc2c1`, the figure is 6.83 µM; as for `Cc1ccc2c(=O)cc(-c3ccccc3Cl)oc2c1`, 28.3 µM.
The same measure, in the same setting: the value for `Cc1ccc2c(=O)cc(-c3ccc(N)cc3)oc2c1` was 40.5 µM; that for `O=c1cc(-c2ccc([N+](=O)[O-])cc2)oc2c(CN3CCNCC3)cc(Cl)cc12` was 0.243 µM.
Take `CN(C)Cc1cc(Cl)cc2c(=O)cc(-c3ccc([N+](=O)[O-])cc3)oc12`: the IC50 is 6.19 µM.
In turn, `O=c1cc(-c2ccc([N+](=O)[O-])cc2)oc2c(Cn3ccnc3)cc(Cl)cc12` registered an IC50 of 2.94 µM.
Still for that read-out and setting: the value for `CCN(CC)Cc1cc(Cl)cc2c(=O)cc(-c3ccccc3Cl)oc12` was 7.94 µM; that for `O=c1cc(-c2ccccc2Cl)oc2c(CN3CCCCC3)cc(Cl)cc12` was 10.7 µM; that for `O=c1cc(-c2ccccc2Cl)oc2c(CN3CCOCC3)cc(Cl)cc12` was 6.81 µM.
The same measure, in the same setting: the value for `O=c1cc(-c2ccccc2Cl)oc2c(CN3CCNCC3)cc(Cl)cc12` was 18.7 µM; that for `CN(C)Cc1cc(Cl)cc2c(=O)cc(-c3ccccc3Cl)oc12` was 1.87 µM.
On to `O=c1cc(-c2ccccc2Cl)oc2c(Cn3ccnc3)cc(Cl)cc12`, for which the IC50 came to 3.27 µM. This IC50 is about 1.7-fold higher than that of the compound before.
Regarding `O=c1cc(-c2ccc(Cl)cc2)oc2c(CN3CCOCC3)cc(Cl)cc12`, the IC50 was 6.33 µM.
On the same count and under the same terms, as for `Cc1ccc2oc(-c3ccccc3Cl)cc(=O)c2c1`, the figure is 6.23 µM; as for `Cc1cc(Cl)cc2c(=O)cc(-c3ccc(N)cc3)oc12`, 11.9 µM.
Regarding `CCN(CC)Cc1cccc2c(=O)cc(-c3ccc([N+](=O)[O-])cc3)oc12`, the IC50 is 28.8 µM.
On the same count and under the same terms, the value for `CN1CCN(Cc2cccc3c(=O)cc(-c4ccc([N+](=O)[O-])cc4)oc23)CC1` was 2.94 µM; that for `CCN(CC)Cc1cc(Cl)cc2c(=O)cc(-c3ccc([N+](=O)[O-])cc3)oc12` was 1.19 µM.
On the same count and under the same terms, as for `O=c1cc(-c2ccc([N+](=O)[O-])cc2)oc2c(CN3CCCCC3)cc(Cl)cc12`, the figure is 8.91 µM; as for `CN1CCN(Cc2cc(Cl)cc3c(=O)cc(-c4ccc([N+](=O)[O-])cc4)oc23)CC1`, 1.76 µM.
The same measure, in the same setting: the value for `O=c1cc(-c2ccc([N+](=O)[O-])cc2)oc2cc(CN3CCNCC3)ccc12` was 4.53 µM; that for `CCN(CC)Cc1ccc2c(=O)cc(-c3ccccc3Cl)oc2c1` was 10.7 µM.
Compound `O=c1cc(-c2ccccc2Cl)oc2cc(CN3CCCCC3)ccc12` had an IC50 of 3.64 µM.

In another assay the target is Cyclin-dependent kinase 1/cyclin B1 (Homo sapiens, UniProt P06493). Kind of assay: Inhibition of CDK1/Cyclin B (unknown origin) by Z-LYTE assay. Format: protein-complex assay.
Cyclin-dependent kinase 1/cyclin B1, sequence (P06493 whole entry): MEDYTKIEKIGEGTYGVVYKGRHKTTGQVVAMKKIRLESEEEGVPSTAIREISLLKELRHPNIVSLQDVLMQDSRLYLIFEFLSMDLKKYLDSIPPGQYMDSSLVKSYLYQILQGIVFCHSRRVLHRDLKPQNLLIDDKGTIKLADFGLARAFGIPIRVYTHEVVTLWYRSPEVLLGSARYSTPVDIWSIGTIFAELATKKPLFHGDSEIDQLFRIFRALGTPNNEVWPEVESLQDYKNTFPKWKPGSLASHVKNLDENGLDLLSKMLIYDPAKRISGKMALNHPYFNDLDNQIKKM
Cyclin-dependent kinase 1/cyclin B1, sequence (P14635 whole entry, further chain): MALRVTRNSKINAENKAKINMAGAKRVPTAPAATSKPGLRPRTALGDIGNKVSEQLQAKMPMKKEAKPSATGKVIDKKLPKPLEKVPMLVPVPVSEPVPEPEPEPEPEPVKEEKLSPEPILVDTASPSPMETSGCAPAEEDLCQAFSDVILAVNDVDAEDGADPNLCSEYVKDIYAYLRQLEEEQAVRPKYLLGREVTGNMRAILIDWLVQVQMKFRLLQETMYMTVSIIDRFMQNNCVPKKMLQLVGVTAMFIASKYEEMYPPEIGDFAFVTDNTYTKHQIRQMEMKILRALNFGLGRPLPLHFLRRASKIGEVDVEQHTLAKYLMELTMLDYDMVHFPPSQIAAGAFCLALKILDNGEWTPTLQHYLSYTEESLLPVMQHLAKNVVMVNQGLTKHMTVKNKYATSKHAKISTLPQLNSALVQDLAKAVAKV
Conditions: not given
With `O=c1cc(-c2ccc([N+](=O)[O-])cc2)oc2c(CN3CCNCC3)cc(Cl)cc12`, it took 4.84 µM to reach half-maximal inhibition (IC50). This counts as single-digit micromolar.
Same read-out and setting: as for `O=c1cc(-c2ccc([N+](=O)[O-])cc2)oc2c(Cn3ccnc3)cc(Cl)cc12`, the figure is 2.14 µM.
On the same count and under the same terms, the value for `CCN(CC)Cc1cc(Cl)cc2c(=O)cc(-c3ccccc3Cl)oc12` was 2.06 µM; that for `O=c1cc(-c2ccc(Cl)cc2)oc2c(CN3CCOCC3)cc(Cl)cc12` was 2.17 µM; that for `CCN(CC)Cc1cccc2c(=O)cc(-c3ccc([N+](=O)[O-])cc3)oc12` was 2.21 µM.
On the same count and under the same terms, as for `CN1CCN(Cc2cccc3c(=O)cc(-c4ccc([N+](=O)[O-])cc4)oc23)CC1`, the figure is 8.13 µM; as for `CN1CCN(Cc2cc(Cl)cc3c(=O)cc(-c4ccc([N+](=O)[O-])cc4)oc23)CC1`, 6.22 µM.

A further assay has as its system SMMC-7721. Kind of assay: Cytotoxicity against Homo sapiens (human) SMMC7721 cells after 48 hr by MTT reduction assay. Conditions: SMMC-7721, 48 h. In kind it is functional, cell-based.
Turning to `CN1CCN(Cc2ccc3c(=O)cc(-c4ccccc4Cl)oc3c2)CC1`, inhibition was half-maximal at 12.9 µM (IC50). This lies in the double-digit micromolar range.
On the same count and under the same terms, the value for `O=c1cc(-c2ccccc2Cl)oc2cc(CN3CCNCC3)ccc12` was 1.91 µM; that for `CN(C)Cc1ccc2c(=O)cc(-c3ccccc3Cl)oc2c1` was 28.2 µM.
Same read-out and setting: as for `O=c1cc(-c2ccc(Cl)cc2)oc2ccc(CN3CCCCC3)cc12`, the figure is 16.2 µM; as for `O=c1cc(-c2ccc(Cl)cc2)oc2ccc(CN3CCNCC3)cc12`, 1.51 µM; as for `Nc1ccc(-c2cc(=O)c3cc(CN4CCCCC4)ccc3o2)cc1`, 3.68 µM.
On the same count and under the same terms, as for `CN1CCN(Cc2ccc3c(=O)cc(-c4ccc([N+](=O)[O-])cc4)oc3c2)CC1`, the figure is 10.7 µM; as for `O=c1cc(-c2ccc([N+](=O)[O-])cc2)oc2c(CN3CCNCC3)cc(Cl)cc12`, 1.1 µM; as for `CN(C)Cc1cc(Cl)cc2c(=O)cc(-c3ccc([N+](=O)[O-])cc3)oc12`, 56.5 µM.
The compound `O=c1cc(-c2ccc([N+](=O)[O-])cc2)oc2c(Cn3ccnc3)cc(Cl)cc12` gave an IC50 of 1.2 µM.
For the compound `CCN(CC)Cc1cc(Cl)cc2c(=O)cc(-c3ccccc3Cl)oc12`, the IC50 was determined as 0.81 µM.
On the same count and under the same terms, as for `O=c1cc(-c2ccccc2Cl)oc2c(CN3CCCCC3)cc(Cl)cc12`, the figure is 3.4 µM.
Take `CN1CCN(Cc2cc(Cl)cc3c(=O)cc(-c4ccccc4Cl)oc23)CC1`: the midpoint of inhibition, the IC50, lay at 3.1 µM.
Still for that read-out and setting: the value for `O=c1cc(-c2ccccc2Cl)oc2c(CN3CCOCC3)cc(Cl)cc12` was 13.2 µM; that for `O=c1cc(-c2ccccc2Cl)oc2c(CN3CCNCC3)cc(Cl)cc12` was 2.69 µM.
Take `CN(C)Cc1cc(Cl)cc2c(=O)cc(-c3ccccc3Cl)oc12`: the IC50 worked out at 1.14 µM.
Turning to `O=c1cc(-c2ccccc2Cl)oc2c(Cn3ccnc3)cc(Cl)cc12`, it took 1.07 µM to reach half-maximal inhibition (IC50).
The same measure, in the same setting: the value for `O=c1cc(-c2ccc(Cl)cc2)oc2c(CN3CCOCC3)cc(Cl)cc12` was 15.3 µM; that for `Cc1ccc2oc(-c3ccccc3Cl)cc(=O)c2c1` was 15.1 µM.
As to `CN1CCN(Cc2ccc3oc(-c4ccc([N+](=O)[O-])cc4)cc(=O)c3c2)CC1`, the IC50 worked out at 19 µM. The IC50 values of the last two compounds are within 1.5-fold of each other.
`CN1CCN(Cc2cccc3c(=O)cc(-c4ccc([N+](=O)[O-])cc4)oc23)CC1` came in with an IC50 of 1.19 µM.
The compound `CCN(CC)Cc1cc(Cl)cc2c(=O)cc(-c3ccc([N+](=O)[O-])cc3)oc12` came in with an IC50 of 2.99 µM.
In the case of `O=c1cc(-c2ccc([N+](=O)[O-])cc2)oc2c(CN3CCCCC3)cc(Cl)cc12`, the IC50 is 1.09 µM.
On the same count and under the same terms, the value for `CN1CCN(Cc2cc(Cl)cc3c(=O)cc(-c4ccc([N+](=O)[O-])cc4)oc23)CC1` was 5.21 µM.
Same read-out and setting: as for `O=c1cc(-c2ccc([N+](=O)[O-])cc2)oc2cc(CN3CCNCC3)ccc12`, the figure is 2.03 µM.
